From publication PMC12417622 (Biopharmaceutics & Drug Disposition, 2025)
Where two headings read alike, the source gives them in different places.

Legend:
hOAT3 [1] = target: T1, hOAT3 (Homo sapiens, UniProt Q8TCC7); parameters: expressed in transfected cells; host or cells: HEK293 (HEK-hOAT3), gift of Dr. Atsushi Yonezawa, Kyoto University Hospital; mock control HEK-pBK (pBKCMV vector); conditions: cited from earlier work; for Ki: read-out: Ki against hOAT3
T1 sequence (Q8TCC7 1-542): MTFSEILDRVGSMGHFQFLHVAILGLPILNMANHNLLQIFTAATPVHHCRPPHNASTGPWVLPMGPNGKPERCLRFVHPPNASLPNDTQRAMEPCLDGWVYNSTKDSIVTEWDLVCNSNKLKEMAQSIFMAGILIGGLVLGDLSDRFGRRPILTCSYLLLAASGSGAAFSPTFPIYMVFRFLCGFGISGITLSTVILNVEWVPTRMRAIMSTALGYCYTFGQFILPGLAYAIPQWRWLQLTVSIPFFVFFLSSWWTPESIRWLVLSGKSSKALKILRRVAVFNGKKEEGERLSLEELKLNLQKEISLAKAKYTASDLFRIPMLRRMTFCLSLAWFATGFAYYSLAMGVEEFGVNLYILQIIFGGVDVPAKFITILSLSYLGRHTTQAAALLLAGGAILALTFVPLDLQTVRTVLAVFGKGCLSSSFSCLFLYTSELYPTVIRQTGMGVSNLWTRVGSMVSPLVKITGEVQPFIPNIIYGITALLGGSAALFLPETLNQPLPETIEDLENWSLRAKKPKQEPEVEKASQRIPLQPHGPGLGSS

hOAT3 [2] = target: T1, hOAT3; experiment: Uptake of 6-CF in HEK-pBK and HEK-hOAT3 cells and its inhibition by probenecid; format: cell-based; parameters: expressed in transfected cells; host or cells: HEK293 (HEK-hOAT3), gift of Dr. Atsushi Yonezawa, Kyoto University Hospital; mock control HEK-pBK (pBKCMV vector); conditions: 5 μM 6-CF, 2 min, 37°C
Method: The cells were incubated for 2 min at 37°C with 5 µM 6‐CF (pH 7.4) in the absence or presence of probenecid (100 µM).

[3] = Pharmacokinetics of methotrexate after intravenous administration with and without febuxostat in rats; format: in vivo, rat; conditions: for Vd / half-life / k el / AUC(0-t) / clearance: male, Wistar, rat, plasma, iv, 2 mg/kg, methotrexate 2 mg/kg i.v., mean ± S.D.; for Vd / half-life / k el: n = 4; for AUC(0-t): n = 4, read-out: AUC0–90 min (converted); for clearance: n = 4, read-out: CLtot
Description: Nine‐week‐old male Wistar rats (SLC Japan Co., Shizuoka, Japan) were used for the pharmacokinetics study. All animal procedures were approved by the Animal Experiments Committee of The University of Osaka (No. 03‐018‐000) and conducted in accordance with the Japanese Law for the Protection and Management of Animals, the Standards Relating to the Care and Management of Laboratory Animals and Relief of Pain, and other relevant regulations and guidelines for animal experimentation. The rats were anesthetized with an intraperitoneal injection of a mixture of medetomidine, midazolam, and butorphanol at doses of 0.38, 2.0, and 2.5 mg/kg, respectively. Polyethylene catheters were implanted into the femoral vein and femoral artery to administer the drug and facilitate frequent blood collection. […] The area under the plasma concentration–time curve from 0 to 90 min (AUC0–90 min) was calculated using the trapezoidal rule. Moreover, the systemic clearance (CLtot), elimination rate constant from the central compartment (Kel), distribution volume of the central compartment (Vd), and half‐life (T1/2) were calculated according to the procedures for 2‐compartmental analysis.
(§1) The entire LC gradient was 16 min.

[4] = parameters: method as in Bleyer [1978]; conditions: within 30 h of administration; ref Bleyer [1978]; cited from earlier work
hOAT3 [5] = target: T1, hOAT3; conditions: 10 μM methotrexate, 2, 5, 10 and 15 min, 37°C, all time points
Method: These cells were cultured in complete medium consisting of Medium 199 (Life Technologies, Carlsbad, CA) supplemented with 10% fetal bovine serum containing G418 (0.5 mg/mL; FUJIFILM WAKO Pure Chemical) and were used between passage numbers 95 and 115. These cells were maintained at 37°C under 5% CO2 in a humidified atmosphere.
The cells (12 × 10^5 cells/dish) were seeded in 3.5 cm dishes with culture medium in the absence of G418. After 48 h of culture, cell monolayers were utilized for uptake study. […] The composition of the incubation medium was as follows: 145 mM NaCl, 3 mM KCl, 1 mM CaCl2, 0.5 mM MgCl2, 5 mM D‐glucose, and 5 mM HEPES (pH 7.4). […] To assess intracellular 6‐CF accumulation, the cells were solubilized in 1 N NaOH and fluorescence was measured using a fluorescence spectrophotometer (SH‐9000lab, CORONA, Ibaraki, Japan) at 495 nm excitation/517 nm emission. The protein content of the solubilized cells was measured using a BCA protein assay kit (Thermo Fisher Scientific, Waltham, MA).
The UPLC‐MS/MS system was applied with the ACQUITY HPLC H‐class/ACQUITY TQD system with electrospray ionization (Waters, Milford, MA). 10 μL of 100 ng/mL pemetrexed, utilized as an internal standard (IS), was added to the samples (100 μL). The samples (10 μL) were then subjected to UPLC‐MS/MS. […]

rOAT3 = system: rOAT3; parameters: method as in Nozaki et al. [2004]; conditions: rat kidney slices; ref Nozaki et al. [2004]; cited from earlier work
[6] = parameters: method as in review report of febuxostat (Feburic Tablet); conditions: rats, 5 min after febuxostat 1 mg/kg i.v.; ref review report of febuxostat (Feburic Tablet); cited from earlier work
[7] = Cmax of febuxostat after oral administration in human; format: in vivo; conditions: 40–120 mg febuxostat orally, estimated from Cmax and protein binding
[8] = parameters: method as in Yu et al. [2023]; conditions: rats; ref Yu et al. [2023]; cited from earlier work
[9] = parameters: method as in Zhang et al. [2014]; conditions: human, 40–120 mg febuxostat orally; ref Zhang et al. [2014]; cited from earlier work
hOAT3 [10] = target: T1, hOAT3; experiment: Inhibition of hOAT3-mediated methotrexate transport by febuxostat in HEK-hOAT3 cells (inhibition plot, Dixon plot); format: cell-based; parameters: expressed in transfected cells; host or cells: HEK293 (HEK-hOAT3), gift of Dr. Atsushi Yonezawa, Kyoto University Hospital; mock control HEK-pBK (pBKCMV vector)
Method: as §1

[11] = substrate: CN(Cc1cnc2nc(N)nc(N)c2n1)c1ccc(C(=O)N[C@@H](CCC(=O)O)C(=O)O)cc1; experiment: cells, lysate or membranes named; conditions: other: 2 min, 37°C, pH 7.4, uptake in HEK-pBK subtracted from HEK-hOAT3, mean ± S.E.
[12] = HEK-hOAT3 cells, estron-3-sulfate as substrate, ref Tang et al. [2022]

For `Cc1nc(-c2ccc(OCC(C)C)c(C#N)c2)sc1C(=O)O[C@@H]1O[C@H](C(=O)O)[C@@H](O)[C@H](O)[C@H]1O` [febuxostat acyl‐β‐D‐glucuronide], the “inhibitory type against hOAT3” value (hOAT3 [1]; [12]) is listed as “competitive” and the Ki (hOAT3 [1]; [12]) is listed as 6110 nM.

With `CCCN(CCC)S(=O)(=O)c1ccc(C(=O)O)cc1` [probenecid] the “Effect on uptake of 6-CF in HEK-hOAT3 cells” value (hOAT3 [2]; 100 μM probenecid) was “potently inhibited”.

Work on `CN(Cc1cnc2nc(N)nc(N)c2n1)c1ccc(C(=O)N[C@@H](CCC(=O)O)C(=O)O)cc1` [methotrexate] yielded a Vd ([3]; febuxostat (+) 1 mg/kg i.v.) of 0.433 ± 0.088 L/kg, a half-life ([3]; febuxostat (+) 1 mg/kg i.v.) of 14 ± 4.6 min and a k el ([3]; febuxostat (+) 1 mg/kg i.v.) of 0.000833 s⁻¹. It also gave an AUC(0-t) ([3]; febuxostat (+) 1 mg/kg i.v.) of 4350 ng·h/mL, a clearance ([3]; febuxostat (+) 1 mg/kg i.v.) of 8.02 ± 2.03 mL/min/kg and a Vd ([3]; febuxostat (−)) of 0.378 ± 0.061 L/kg. It also gave a half-life ([3]; febuxostat (−)) of 6.4 ± 1.4 min, a k el ([3]; febuxostat (−)) of 0.00183 s⁻¹ and an AUC(0-t) ([3]; febuxostat (−)) of 2170 ng·h/mL. The clearance ([3]; febuxostat (−)) was 15.9 ± 3.56 mL/min/kg, the “Plasma concentration of methotrexate with concomitant febuxostat” value ([3]; methotrexate 2 mg/kg i.v. with febuxostat 1 mg/kg i.v. vs without, at 15, 30, 60 and 90 min) was “significantly increased” and the “excreted in urine as unchanged drug” value [4] was “approximately 95%”. For the same molecule, the “Uptake in HEK-hOAT3 cells compared with HEK-pBK cells” value (hOAT3 [5]) was “significantly higher” and the “share of renal basolateral uptake for which rOAT3 is responsible” value (rOAT3) was “approximately 50%”.

In the case of `Cc1nc(-c2ccc(OCC(C)C)c(C#N)c2)sc1C(=O)O` [febuxostat], the “plasma concentration of febuxostat” value [6] is given as “approximately 24.1 μM”, the Ki (hOAT3 [1]; ref Tang et al. ([2022])) is given as 550 ± 150 nM and the “unbound Cmax (clinical concentration)” value [7] is given as 0.12 to 0.30 µM. For the same molecule, the protein binding [8] was 98.4%, the Cmax [9] was 5.3 to 13.5 µM and the IC50 (hOAT3 [10]) was 650 ± 130 nM. The Ki (hOAT3 [10]) was 630 ± 10 nM, the “inhibitory type against hOAT3-mediated transport of methotrexate” value (hOAT3 [10]; Dixon plot, HEK-hOAT3 cells) was “noncompetitive” and the “ratio of unbound Cmax to Ki value” (hOAT3 [10]; human unbound Cmax 0.12–0.30 μM, Ki against hOAT3 0.63 μM) was 0.19–0.48.

In the case of `O=C(O)c1ccc(C(=O)O)c(-c2c3ccc(=O)cc-3oc3cc(O)ccc23)c1` [6‐CF, 6‐carboxyfluorescein], the “Uptake in HEK-hOAT3 cells relative to HEK-pBK cells” value (hOAT3 [2]; pH 7.4) is reported as “approximately 17.4 fold”.

B1: hOAT3 (Homo sapiens) (protein)
chain: T1 sequence (Q8TCC7 1-542)
With B1 the Km [11] was 46.4 ± 9.2 µM and the Vmax [11] was 287 ± 26 pmol/mg protein/min.
